The text below walks through data of patent US6048892A, “Ester compound pesticide containing thereof” (Sumitomo Chemical Company, Limited, priority 1999, dated 2000).

SMILES strings stand for the structures.

Data set [1] has as its system webbing clothes moth (Tineola bisselliella). Description: Biological Test 14: treated filter paper in cardboard box, percent moribund, fabric damage and persistence. Type of data set: in vivo. As to conditions: 36 mg on filter paper. As for the experimental part: A filter paper (3.2 cm×3.2 cm in size) treated with 36 mg of each of the present compounds and two wool muslin fabrics (25 cm×25 cm in size) were hung down at the upper part of a corrugated cardboard box (29 cm×29 cm×29 cm in size). After standing at 25° C. and a humidity of 60% for 1 week, two tea-strainer balls holding 7 to 10 middle instar larvae of webbing clothes moth (Tineola bisselliella) and one piece of wool muslin cloth (2 cm×2 cm in size) were hung down at the upper part of the box. The box was closed with a lid. After one week, the box was opened, and the percent moribund and the degree of damage of the wool muslin cloth by the moths were examined. The same tests was repeated 2 weeks, 3 weeks and 5 weeks after the treatment to examine the persistance of the present compound. The degree of damage was represented by "-" in no damage, "+" in slight damage, "++" in heavy damage and "+++" in severe damage.

The nature of data set [2]: Toxicity Test: acute oral LD50. As to conditions: rat, in vivo, corn oil, fasted male 7-week old rats, after 7 days. As for the experimental part:
After subjecting the rats to a twenty-hour fasting, 0.1 ml of the diluted solution per 10 g weight was forcibly applied into the stomach of four male 7-week old rats. The rats were given food and water four hours after the application and thereafter regularly fed and watered, and kept in a cage. After 7 days, the mortality was examined for the rats and LD50 was calculated.

In data set [3] the test system is common mosquitoes (Culex pipiens pallens). Nature of the data set: Biological Test 8: knock-down of mosquitoes by mosquito-coil. Type of data set: in vivo. As to conditions: 1.0 g of 0.3% mosquito-coil in 0.34 m^3 chamber; after 15 minutes. As for the experimental part:
Mosquito-coil containing the present compound in an amount of 0.3% was prepared according to the formulation example 10 for the present compounds. Ten female common mosquitoes (Culex pipiens pallens) were left in a glass chamber (70 cm×70 cm×70 cm: 0.34 m^3) and 1.0 g of 0.3% mosquito-coil having both ends lit was placed in the glass chamber. After 15 minutes, the rate of knocked-down mosquitoes was examined.

Data set [4] has the same test system. Description: Biological Test 6: mortality of last-instar mosquito larvae in water. Type of data set: in vivo. As to conditions: 24 h, read-out: mortality of the common mosquitoes. As for the experimental part:
0.7 ml of aqueous emulsion, obtained by diluting emulsifiable concentrate prepared for each of the present compounds according to the formulation example 1, was added to 100 ml of ion-exchanged water (concentration of active ingredient: 3.5 ppm). Twenty last-instar larvae of common mosquitoes (Culex pipiens pallens) were left in the water. After one day, the mortality of the common mosquitoes was examined.

The test system of data set [5] is brown planthopper (Nilaparvata lugens). Nature of the data set: Biological Test 2: mortality of larvae on dipped rice plant stalk. Format: in vivo. The note with it: 144 h, read-out: mortality of the larvae. The procedure:
A stalk of a rice plant was dipped for one minute in a 500 ppm aqueous emulsion obtained by diluting each emulsifiable concentrate of the present compounds prepared according to the formulation example 1. The rice plant stalk was air-dried and placed in a polyethylene cup (diameter: 5.5 cm) where filter paper (diameter: 5.5 cm) impregnated with 1 ml of water was put. Approximately 30 larvae of brown planthopper (Nilaparvata lugens) were put in the polyethylene cup. After 6 days, the mortality of the larvae was examined.

For data set [6], the system named is common mosquitoes (Culex pipiens pallens). Nature of the data set: Biological Test 7: knock-down of mosquitoes by sprayed oil solution. The note with it: 0.7 ml of 0.1% oil solution sprayed in 0.34 m^3 chamber; after 15 minutes. Format: in vivo. As for the experimental part: Ten female common mosquitoes (Culex pipiens pallens) were left in a glass chamber (70 cm×70 cm×70 cm: 0.34 m^3). 0.7 ml of 0.1% oil solution prepared for each of the present compounds according to the formulation example 7 was sprayed with a spray gun at 0.8 atmospheric pressure. After 15 minutes, the rate of knocked-down mosquitoes was examined.

Data set [7] relates to houseflies (Musca domestica). Nature of the data set: Biological Test 4: mortality of female houseflies low sensitive to pyrethroids, treated filter paper. Type of data set: in vivo. As to conditions: 24 h. As for the experimental part: Filter paper of 5.5 cm in diameter was laid in the bottom of a polyethylene cup (diameter: 5.5 cm). After 0.7 ml of a 500 ppm aqueous emulsion obtained by diluting each emulsifiable concentrate prepared according to the formulation example 1 was dropped on the filter paper and approximately 30 mg of sucrose as bait was uniformly scattered. Ten female houseflies (Musca domestica), which were low sensitive to pyrethroids, were left in the cup with a cover. After one day, the mortality was examined.

For data set [8], the system named is German cockroaches (Blattella germanica). Description: Biological Test 5: mortality of male German cockroaches low sensitive to pyrethroids, treated filter paper. Format: in vivo. As to conditions: 144 h. The procedure:
Filter paper of 5.5 cm in diameter was laid in the bottom of a polyethylene cup (diameter: 5.5 cm). After 0.7 ml of a 500 ppm aqueous emulsion obtained by diluting each emulsifiable concentrate prepared according to the formulation example 1 was dropped on the filter paper and approximately 30 mg of sucrose as bait was uniformly scattered. Two male German cockroaches (Blattella germanica), which were low sensitive to pyrethroids, were left in the cup with a cover. After six days, the mortality was examined.

Data set [9] concerns houseflies (Musca domestica). Description: Biological Test 17: topical application of compound (2) with piperonyl butoxide, mortality. Type of data set: in vivo. The note with it: after 24 hours. As for the experimental part:
The combination rate of piperonyl butoxide to the present compound was 0, 2, 4, 8 and 16 times. The mixture was dissolved in acetone. The acetone solution (0.5 μL) was applied to 10 female houseflies (Musca domestica) at the back thoracic region. After 24 hours, the number of dead insects was observed (2 repetition) and mortality was calculated.

For data set [10], the system named is tobacco cutworm (Spodoptera litura). Description: Biological Test 1: mortality of larvae on impregnated artificial bait. As to conditions: 144 h, read-out: mortality of the larvae. Format: in vivo. The procedure: Emulsifiable concentrates were prepared for each of the present compounds according to the formulation example 1. Thirteen grams of artificial bait for tobacco cutworm (Spodoptera litura) were placed in a polyethylene cup (diameter: 11 cm) and impregnated with 2 ml of the 500 ppm emulsion prepared by diluting the emulsifiable concentrates with water. Ten 4-instar larvae of Spodoptera litura were put in the polyethylene cup. After 6 days, the mortality of the larvae was examined.

The subject of data set [11] is common mosquitoes (Culex pipiens pallens). Nature of the data set: Biological Test 11: mosquitoes in cup over treated aluminum plate without direct contact, mortality. Type of data set: in vivo. As to conditions: 24 h. The procedure:
After 0.64 ml of a 0.05 (w/v) % acetone solution of the present compounds was dropped into an aluminum plate (bottom diameter: 7 cm), acetone was air-dried. Ten female common mosquitoes (Culex pipiens pallens) were left in a polyethylene cup (diameter: 9 cm; depth: 4.5 cm) and the cup was sealed with a 16-mesh nylon net to prevent direct contact of the mosquitoes with the compound. The cup was placed upside down on the aluminum plate at 25° C. for 120 minutes. The cup was then removed from the aluminum plate, and water and feed were given to the mosquitoes. After 24 hours, the mortality was examined (two replicate).

The test system of data set [12] is webbing clothes moth (Tineola bisselliella). Description: Biological Test 12: topical application to larvae of webbing clothes moth, mortality and fabric damage. Format: in vivo. As to conditions: for degree of damage of the wool muslin fabric: 3 μg/insect, after 7 days; for mortality at 0.003 mg: Tineola bisselliella, 168 h. As for the experimental part:
Each of the present compounds diluted with acetone to a predetermined concentration was applied to ten middle instar larvae of webbing clothes moth (Tineola bisselliella) at the central part of the back so as to give the active ingredient in a dose of 3 μg/insect. A wool muslin fabric (2 cm×2 cm in size) was given to the webbing clothes moths as the food. After 7 days, the mortality and the degree of damage of the wool muslin fabric by the moths were examined (two replicate).

Data set [13] deals with southern corn rootworm (Diabrotica undecimpunctata howardi). Nature of the data set: Biological Test 3: mortality of hatched larvae and eggs. As to conditions: 192 h, read-out: mortality of the hatched larvae and eggs. Format: in vivo. From the text: Filter paper of 5.5 cm in diameter was laid in the bottom of a polyethylene cup (diameter: 5.5 cm). […] After 8 days, the mortality of the hatched larvae and eggs was examined.

For data set [14], the system named is webbing clothes moth (Tineola bisselliella). Nature of the data set: Biological Test 13: volatile agent in cup, mortality and fabric damage. Format: in vivo. As to conditions: volatile agent (100 μg on filter paper), 950 cm^3 cup, 25° C., 1 week; for mortality: 10080 min. As for the experimental part:
A wool muslin fabric (2 cm×2 cm in size) was placed on the bottom of a polyethylene cup (bottom diameter: 10 cm, opening part diameter: 12.5 cm, height: 9.5 cm, volume: 950 cm^3). Ten middle instar larvae of webbing clothes moth (Tineola bisselliella) were put in the cup and each of the volatile agents prepared according to the formulation example 14 was hung from the cap in the interior of the cup. After standing at 25° C. for 1 week, the cup was opened, and the mortality and the degree of damage of the wool muslin fabric by the moths were examined (two replicate).

With `CC1(C)C(/C=C(\Cl)C(F)(F)F)C1C(=O)OCc1coc(Cc2ccccc2)c1` (stereo not shown) [A, reference compound], the degree of damage result in [1] (After 1 week), in data set [1] (After 2 weeks), in data set [1] (After 3 weeks) and in [1] (After 5 weeks) was “+++” each time. Besides, the LD50 at 168 h in [2] is below 50 mg/kg.

As to `CC1(C)C(/C=C(\Cl)C(F)(F)F)C1C(=O)OCc1ccc(C(F)F)o1` (stereo not shown) [B, reference compound], the degree of damage entry in data set [1] (After 1 week), in [1] (After 2 weeks), in [1] (After 3 weeks) and in [1] (After 5 weeks) was “+++” each time.

As for `C#CCc1ccc(COC(=O)C2C(/C=C(\Cl)C(F)(F)F)C2(C)C)o1` (stereo not shown) [C, reference compound], the degree of damage entry in data set [1] (After 1 week), in data set [1] (After 2 weeks), in data set [1] (After 3 weeks) and in [1] (After 5 weeks) was “+++” in each case. In data set [2], the LD50 at 168 h was below 100 mg/kg.

For the compound `CCc1ccc(COC(=O)[C@@H]2[C@H](/C=C(\Cl)C(F)(F)F)C2(C)C)o1` (relative stereo) [(2), 5-ethyl-2-furfuryl (1RS,cis)-3-(Z-2-chloro-3,3,3-trifluoroprop-1-enyl)-2,2-dimethyl-cyclopropanecarboxylate], the entries for the “rate of knocked-down mosquitoes” value in [3] and in data set [6] were 100% and at least 90%, respectively. Also, in [4], the mortality at 3.5 ppm is at least 90%. Besides, the mortality at 500 ppm in [5] was at least 90%; in data set [7], 100%; in data set [8] it was 100%. In addition, the degree of damage entry in [1] (After 1 week), in data set [1] (After 2 weeks), in data set [1] (After 3 weeks) and in [1] (After 5 weeks) was “-” each time. The “Mortality (%)” value came to 30% in data set [9] (compound (2) 0.2 μg/female, piperonyl butoxide 0); 85% in data set [9] (compound (2) 0.2 + piperonyl butoxide 0.4 μg/female); 100% in data set [9] (compound (2) 0.2 + piperonyl butoxide 0.8 μg/female); 100% in [9] (compound (2) 0.2 + piperonyl butoxide 1.6 μg/female); 100% in [9] (compound (2) 0.2 + piperonyl butoxide 3.2 μg/female). The mortality at 500 µg/mL in data set [10] and in data set [11] was 100% in each case. The “degree of damage of the wool muslin fabric” value in [12] and in data set [14] was “no damage” each time. Besides, the mortality at 0.003 mg in [12] was 100%. Also, in data set [13], the mortality at 50 ppm came to 100%. The compound further came in with a mortality in data set [14] of 100%.

Turning to `C=CCc1ccc(COC(=O)[C@@H]2[C@H](/C=C(\Cl)C(F)(F)F)C2(C)C)o1` (relative stereo) [(4), 5-allyl-2-furfuryl (1RS,cis)-3-(Z-2-chloro-3,3,3-trifluoroprop-1-enyl)-2,2-dimethylcyclopropanecarboxylate], the “rate of knocked-down mosquitoes” value in data set [3] is recorded as 100%; in [6], at least 90%. For the same compound, the mortality at 3.5 ppm in data set [4] was at least 90%. For the same compound, the results for the mortality at 500 ppm in data set [5], in [7] and in [8] were at least 90%, 100% and 100%, respectively. The degree of damage entry in data set [1] (After 1 week), in data set [1] (After 2 weeks), in data set [1] (After 3 weeks) and in data set [1] (After 5 weeks) was “-” each time. In addition, the mortality at 500 µg/mL in data set [10] and in data set [11] was 100% each time. Moreover, the “degree of damage of the wool muslin fabric” value in data set [12] and in data set [14] was “no damage” in each case. Besides, the mortality at 0.003 mg in data set [12] was determined as 100%. The mortality at 50 ppm in [13] is 100%. For the same compound, in [14], the mortality stood at 100%.

For the compound `CCCc1ccc(COC(=O)[C@@H]2[C@H](/C=C(\Cl)C(F)(F)F)C2(C)C)o1` (relative stereo) [(3), 5-propyl-2-furfuryl (1RS,cis)-3-(Z-2-chloro-3,3,3-trifluoroprop-1-enyl)-2,2-dimethylcyclopropanecarboxylate], the “rate of knocked-down mosquitoes” value in data set [3] is given as 100%; in data set [6] it was at least 90%. For the same compound, in [4], the mortality at 3.5 ppm is at least 90%. Moreover, the mortality at 500 ppm in data set [5] is at least 90%; in data set [7], 100%; in data set [8], 100%. Besides, the degree of damage entry in data set [1] (After 1 week), in data set [1] (After 2 weeks), in data set [1] (After 3 weeks) and in [1] (After 5 weeks) was “-” each time. In addition, the mortality at 500 µg/mL in [10] and in data set [11] was 100% throughout. Moreover, the “degree of damage of the wool muslin fabric” value in data set [12] and in data set [14] was “no damage” in each case. This compound also had a mortality at 0.003 mg in data set [12] of 100%. Moreover, the mortality at 50 ppm in [13] was determined as 100%. The mortality in data set [14] is 100%.

As a reminder, the LD50 is the dose at which mortality reaches 50%. Read a high LD50 as a less toxic substance. What is called mortality is the percentage killed.
